# Experimental data taken from the kinase profiling compilation of Christmann-Franck et al. (2016).
# Assays:
# Assay in all cases: radiometric filter-binding kinase assay, Kinase HotSpot
# Conditions in all cases: compound 0.5 µM; ATP 10 µM
# INSRR (human) = INSRR (human) (UniProt P14616)
# BRSK2 (human) = BRSK2 (human) (UniProt Q8IWQ3)
# CLK2 (human) = CLK2 (human) (UniProt P49760)
# CDC42BPA (human) = CDC42BPA (human) (UniProt Q5VT25)
# BRSK1 (human) = BRSK1 (human) (UniProt Q8TDC3)
# FRK (human) = FRK (human) (UniProt P42685)
# GSK3A (human) = GSK3A (human) (UniProt P49840)
# EPHA6 (human) = EPHA6 (human) (UniProt Q9UF33)
# PHKG1 (human) = PHKG1 (human) (UniProt Q16816)
# DCLK2 (human) = DCLK2 (human) (UniProt Q8N568)
# LTK (human) = LTK (human) (UniProt P29376)
# MAPK13 (human) = MAPK13 (human) (UniProt O15264)
# LRRK2 (human) = LRRK2 (human) (UniProt Q5S007)
# MYLK2 (human) = MYLK2 (human) (UniProt Q9H1R3)
# EPHB2 (human) = EPHB2 (human) (UniProt P29323)
# CSF1R (human) = CSF1R (human) (UniProt P07333)
# NEK9 (human) = NEK9 (human) (UniProt Q8TD19)
# EPHA1 (human) = EPHA1 (human) (UniProt P21709)
# PIM2 (human) = PIM2 (human) (UniProt Q9P1W9)
# PRKACA (human) = PRKACA (human) (UniProt P17612)
# PAK6 (human) = PAK6 (human) (UniProt Q9NQU5)
# EPHB3 (human) = EPHB3 (human) (UniProt P54753)
# AKT1 (human) = AKT1 (human) (UniProt P31749)
# MARK3 (human) = MARK3 (human) (UniProt P27448)
# FGFR3 (human) = FGFR3 (human) (UniProt P22607)
# MAP2K1 (human) = MAP2K1 (human) (UniProt Q02750)
# CAMKK2 (human) = CAMKK2 (human) (UniProt Q96RR4)
# STK16 (human) = STK16 (human) (UniProt O75716)
# MAP2K2 (human) = MAP2K2 (human) (UniProt P36507)
# ULK1 (human) = ULK1 (human) (UniProt O75385)
# RPS6KA1 KD1 KD2 (human) = RPS6KA1 KD1 KD2 (human) (UniProt Q15418)
# MAP4K2 (human) = MAP4K2 (human) (UniProt Q12851)
# BLK (human) = BLK (human) (UniProt P51451)
# MAPKAPK3 (human) = MAPKAPK3 (human) (UniProt Q16644)
# PASK (human) = PASK (human) (UniProt Q96RG2)
# CDK5 CDK5R1 p35 (human) = CDK5 CDK5R1 p35 (human) (UniProt Q00535+Q15078)
# RPS6KA3 KD1 KD2 (human) = RPS6KA3 KD1 KD2 (human) (UniProt P51812)
# ACVRL1 (human) = ACVRL1 (human) (UniProt P37023)
# MAP3K10 (human) = MAP3K10 (human) (UniProt Q02779)
# DSTYK (human) = DSTYK (human) (UniProt Q6XUX3)
# ULK2 (human) = ULK2 (human) (UniProt Q8IYT8)
# CDK2 CCNA2 (human) = CDK2 CCNA2 (human) (UniProt P24941+P20248)
# LTK (human), sequence (P29376 whole entry, looked up): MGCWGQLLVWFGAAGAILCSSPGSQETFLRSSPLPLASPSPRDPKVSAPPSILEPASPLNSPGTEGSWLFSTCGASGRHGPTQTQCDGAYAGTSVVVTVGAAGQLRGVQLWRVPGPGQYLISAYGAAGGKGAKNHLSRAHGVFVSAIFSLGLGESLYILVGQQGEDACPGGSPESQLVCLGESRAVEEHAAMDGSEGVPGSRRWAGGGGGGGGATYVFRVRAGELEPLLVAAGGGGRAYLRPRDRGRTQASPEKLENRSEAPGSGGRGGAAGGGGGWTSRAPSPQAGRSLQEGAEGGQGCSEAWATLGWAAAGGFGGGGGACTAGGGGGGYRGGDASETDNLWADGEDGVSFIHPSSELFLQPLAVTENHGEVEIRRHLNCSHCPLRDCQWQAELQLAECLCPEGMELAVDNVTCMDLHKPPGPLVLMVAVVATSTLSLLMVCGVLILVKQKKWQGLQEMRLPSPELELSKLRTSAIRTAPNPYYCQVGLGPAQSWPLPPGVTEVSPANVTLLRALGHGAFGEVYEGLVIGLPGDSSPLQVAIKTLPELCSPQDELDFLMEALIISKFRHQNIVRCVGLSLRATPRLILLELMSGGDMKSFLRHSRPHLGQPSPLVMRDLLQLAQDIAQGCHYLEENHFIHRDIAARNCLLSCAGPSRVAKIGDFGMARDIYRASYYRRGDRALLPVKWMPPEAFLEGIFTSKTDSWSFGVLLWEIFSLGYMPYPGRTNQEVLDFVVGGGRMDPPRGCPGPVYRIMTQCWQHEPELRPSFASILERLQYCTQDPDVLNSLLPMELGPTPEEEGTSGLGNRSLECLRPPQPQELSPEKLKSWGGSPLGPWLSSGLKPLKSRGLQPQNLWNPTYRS
# RPS6KA3 KD1 KD2 (human), sequence (P51812 whole entry, looked up): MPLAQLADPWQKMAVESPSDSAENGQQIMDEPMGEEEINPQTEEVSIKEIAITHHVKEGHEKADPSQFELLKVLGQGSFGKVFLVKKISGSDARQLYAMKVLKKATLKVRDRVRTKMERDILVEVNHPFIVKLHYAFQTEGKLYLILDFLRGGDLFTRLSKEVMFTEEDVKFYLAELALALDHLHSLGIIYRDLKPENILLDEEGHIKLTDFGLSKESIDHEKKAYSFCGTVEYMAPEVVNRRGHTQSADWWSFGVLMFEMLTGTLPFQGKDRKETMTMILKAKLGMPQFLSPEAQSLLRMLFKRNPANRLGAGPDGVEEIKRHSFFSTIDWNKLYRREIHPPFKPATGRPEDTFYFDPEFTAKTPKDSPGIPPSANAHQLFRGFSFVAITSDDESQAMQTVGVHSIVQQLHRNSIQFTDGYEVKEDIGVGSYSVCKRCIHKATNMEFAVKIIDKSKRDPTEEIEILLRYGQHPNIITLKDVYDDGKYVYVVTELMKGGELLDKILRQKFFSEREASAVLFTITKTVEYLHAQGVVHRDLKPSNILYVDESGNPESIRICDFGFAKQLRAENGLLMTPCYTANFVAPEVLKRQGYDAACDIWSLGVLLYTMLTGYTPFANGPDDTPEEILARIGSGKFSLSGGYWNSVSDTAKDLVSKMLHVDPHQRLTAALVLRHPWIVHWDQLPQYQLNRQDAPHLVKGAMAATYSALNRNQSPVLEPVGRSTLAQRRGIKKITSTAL
# FRK (human), sequence (P42685 whole entry, looked up): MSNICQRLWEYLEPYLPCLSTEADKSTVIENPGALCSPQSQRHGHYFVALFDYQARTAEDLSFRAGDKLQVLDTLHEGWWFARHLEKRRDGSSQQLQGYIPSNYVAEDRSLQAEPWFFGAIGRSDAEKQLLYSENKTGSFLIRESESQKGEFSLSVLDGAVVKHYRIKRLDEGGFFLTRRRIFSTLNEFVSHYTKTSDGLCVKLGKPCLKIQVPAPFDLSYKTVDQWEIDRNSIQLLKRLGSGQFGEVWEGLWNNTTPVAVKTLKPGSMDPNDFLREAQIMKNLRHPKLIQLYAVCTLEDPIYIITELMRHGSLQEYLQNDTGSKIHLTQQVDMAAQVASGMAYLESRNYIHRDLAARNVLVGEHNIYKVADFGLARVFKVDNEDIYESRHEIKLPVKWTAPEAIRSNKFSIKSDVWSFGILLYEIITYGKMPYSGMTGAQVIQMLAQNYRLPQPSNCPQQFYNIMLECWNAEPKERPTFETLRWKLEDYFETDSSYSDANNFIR
# BRSK1 (human), sequence (Q8TDC3 whole entry, looked up): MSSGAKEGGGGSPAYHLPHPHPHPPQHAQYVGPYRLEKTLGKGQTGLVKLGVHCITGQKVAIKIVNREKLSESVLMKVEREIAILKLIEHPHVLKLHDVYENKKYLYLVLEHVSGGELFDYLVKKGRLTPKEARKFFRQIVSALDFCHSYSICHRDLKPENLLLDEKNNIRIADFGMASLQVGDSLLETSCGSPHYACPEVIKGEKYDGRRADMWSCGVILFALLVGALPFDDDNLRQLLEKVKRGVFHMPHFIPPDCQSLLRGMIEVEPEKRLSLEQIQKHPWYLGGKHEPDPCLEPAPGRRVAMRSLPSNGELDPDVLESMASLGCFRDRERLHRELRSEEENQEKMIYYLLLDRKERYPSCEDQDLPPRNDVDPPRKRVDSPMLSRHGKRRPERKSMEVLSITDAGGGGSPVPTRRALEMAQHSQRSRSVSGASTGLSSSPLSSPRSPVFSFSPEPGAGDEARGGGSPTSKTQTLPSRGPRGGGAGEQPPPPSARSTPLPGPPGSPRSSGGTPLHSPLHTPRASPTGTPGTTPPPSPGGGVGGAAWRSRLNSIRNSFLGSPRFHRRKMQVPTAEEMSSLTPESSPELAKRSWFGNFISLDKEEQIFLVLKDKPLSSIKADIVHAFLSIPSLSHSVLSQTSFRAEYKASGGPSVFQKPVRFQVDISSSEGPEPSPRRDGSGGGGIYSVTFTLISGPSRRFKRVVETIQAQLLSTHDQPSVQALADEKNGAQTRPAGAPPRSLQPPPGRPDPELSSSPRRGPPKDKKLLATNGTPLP
# AKT1 (human), sequence (P31749 whole entry, looked up): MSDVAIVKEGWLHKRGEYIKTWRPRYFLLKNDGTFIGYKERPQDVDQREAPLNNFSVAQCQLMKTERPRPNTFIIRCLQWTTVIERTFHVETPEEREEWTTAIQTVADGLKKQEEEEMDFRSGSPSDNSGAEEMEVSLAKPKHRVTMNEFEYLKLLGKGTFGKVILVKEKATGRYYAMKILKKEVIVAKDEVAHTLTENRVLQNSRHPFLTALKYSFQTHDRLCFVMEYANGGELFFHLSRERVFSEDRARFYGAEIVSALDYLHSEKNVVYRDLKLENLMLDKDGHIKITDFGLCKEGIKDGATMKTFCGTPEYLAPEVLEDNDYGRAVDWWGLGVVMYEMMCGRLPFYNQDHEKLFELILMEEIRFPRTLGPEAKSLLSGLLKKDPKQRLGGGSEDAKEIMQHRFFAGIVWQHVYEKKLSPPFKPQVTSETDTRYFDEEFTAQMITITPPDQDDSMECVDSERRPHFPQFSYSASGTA
# NEK9 (human), sequence (Q8TD19 whole entry, looked up): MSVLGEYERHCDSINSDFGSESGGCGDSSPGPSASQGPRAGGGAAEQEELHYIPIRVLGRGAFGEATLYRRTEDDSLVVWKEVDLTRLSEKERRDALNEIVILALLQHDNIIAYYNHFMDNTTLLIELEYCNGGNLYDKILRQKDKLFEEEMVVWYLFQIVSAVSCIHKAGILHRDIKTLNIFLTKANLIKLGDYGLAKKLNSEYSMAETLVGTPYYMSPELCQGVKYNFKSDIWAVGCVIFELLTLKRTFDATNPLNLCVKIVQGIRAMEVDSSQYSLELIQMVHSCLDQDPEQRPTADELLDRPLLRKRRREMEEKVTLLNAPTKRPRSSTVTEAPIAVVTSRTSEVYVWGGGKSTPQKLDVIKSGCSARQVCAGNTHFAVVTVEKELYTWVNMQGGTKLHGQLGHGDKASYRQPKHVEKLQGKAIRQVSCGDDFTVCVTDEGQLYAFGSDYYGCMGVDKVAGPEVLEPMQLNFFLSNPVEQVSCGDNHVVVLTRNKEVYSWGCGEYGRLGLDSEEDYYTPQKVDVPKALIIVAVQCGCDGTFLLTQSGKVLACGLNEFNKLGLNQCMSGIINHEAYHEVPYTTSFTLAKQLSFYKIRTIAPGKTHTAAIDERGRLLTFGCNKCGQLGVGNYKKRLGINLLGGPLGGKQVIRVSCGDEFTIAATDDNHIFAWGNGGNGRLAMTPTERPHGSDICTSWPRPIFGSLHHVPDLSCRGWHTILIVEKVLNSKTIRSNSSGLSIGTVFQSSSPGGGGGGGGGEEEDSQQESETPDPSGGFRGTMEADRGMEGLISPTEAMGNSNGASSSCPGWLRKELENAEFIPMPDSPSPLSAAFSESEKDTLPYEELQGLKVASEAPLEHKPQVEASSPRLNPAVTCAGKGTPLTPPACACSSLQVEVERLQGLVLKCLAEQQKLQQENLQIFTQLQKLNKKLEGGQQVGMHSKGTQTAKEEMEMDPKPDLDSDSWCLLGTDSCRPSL
# PIM2 (human), sequence (Q9P1W9 whole entry, looked up): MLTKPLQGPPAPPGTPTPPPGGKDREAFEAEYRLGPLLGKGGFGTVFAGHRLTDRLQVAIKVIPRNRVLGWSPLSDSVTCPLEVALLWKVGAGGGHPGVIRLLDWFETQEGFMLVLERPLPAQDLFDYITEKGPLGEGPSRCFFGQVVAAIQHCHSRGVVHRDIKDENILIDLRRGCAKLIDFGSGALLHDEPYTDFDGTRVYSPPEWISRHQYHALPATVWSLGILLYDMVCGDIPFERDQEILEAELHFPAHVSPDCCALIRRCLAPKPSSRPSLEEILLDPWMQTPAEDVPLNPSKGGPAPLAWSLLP
# STK16 (human), sequence (O75716 whole entry, looked up): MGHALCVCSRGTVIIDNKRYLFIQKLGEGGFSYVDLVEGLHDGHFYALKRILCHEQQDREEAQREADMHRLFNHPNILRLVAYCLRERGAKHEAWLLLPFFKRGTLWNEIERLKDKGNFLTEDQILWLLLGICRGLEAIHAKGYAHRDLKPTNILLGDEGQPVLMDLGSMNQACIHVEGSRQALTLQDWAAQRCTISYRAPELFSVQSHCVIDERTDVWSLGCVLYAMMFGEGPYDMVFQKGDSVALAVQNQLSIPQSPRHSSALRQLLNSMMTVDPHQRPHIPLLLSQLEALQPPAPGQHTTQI
smiles,measurement,setting,value
COc1cc2ncnc(Nc3cccc(Cl)c3)c2cc1OC,residual activity,INSRR (human),99%
same,residual activity,BRSK2 (human),96.7%
same,residual activity,CLK2 (human),89.6%
same,residual activity,CDC42BPA (human),82.2%
same,residual activity,BRSK1 (human),93.1%
same,residual activity,FRK (human),81.1%
same,residual activity,GSK3A (human),104%
same,residual activity,EPHA6 (human),27.8%
same,residual activity,PHKG1 (human),88.9%
same,residual activity,DCLK2 (human),94.7%
same,residual activity,LTK (human),60.3%
same,residual activity,MAPK13 (human),99.8%
same,residual activity,LRRK2 (human),60.9%
same,residual activity,MYLK2 (human),90.1%
same,residual activity,EPHB2 (human),98.1%
same,residual activity,CSF1R (human),98.2%
same,residual activity,NEK9 (human),82.6%
same,residual activity,EPHA1 (human),81.7%
same,residual activity,PIM2 (human),104%
same,residual activity,PRKACA (human),98.6%
same,residual activity,PAK6 (human),81.6%
same,residual activity,EPHB3 (human),99.1%
same,residual activity,AKT1 (human),89.9%
same,residual activity,MARK3 (human),89.8%
same,residual activity,FGFR3 (human),88.5%
same,residual activity,MAP2K1 (human),98.5%
same,residual activity,CAMKK2 (human),97.5%
same,residual activity,STK16 (human),101%
same,residual activity,MAP2K2 (human),102%
same,residual activity,ULK1 (human),84.7%
same,residual activity,RPS6KA1 KD1 KD2 (human),87.3%
same,residual activity,MAP4K2 (human),98.1%
same,residual activity,BLK (human),68.2%
same,residual activity,MAPKAPK3 (human),92.7%
same,residual activity,PASK (human),90.2%
same,residual activity,CDK5 CDK5R1 p35 (human),91%
same,residual activity,RPS6KA3 KD1 KD2 (human),87.8%
same,residual activity,ACVRL1 (human),96.4%
same,residual activity,MAP3K10 (human),101%
same,residual activity,DSTYK (human),90.8%
same,residual activity,ULK2 (human),103%
c1ccc(-c2n[nH]cc2-c2ccnc3ccccc23)nc1,residual activity,INSRR (human),101%
same,residual activity,BRSK2 (human),101%
same,residual activity,CLK2 (human),99.4%
same,residual activity,BRSK1 (human),99%
same,residual activity,FRK (human),92.8%
same,residual activity,GSK3A (human),95.1%
same,residual activity,EPHA6 (human),98.8%
same,residual activity,PHKG1 (human),94.2%
same,residual activity,DCLK2 (human),97.4%
same,residual activity,LTK (human),92.8%
same,residual activity,MAPK13 (human),110%
same,residual activity,LRRK2 (human),93.7%
same,residual activity,MYLK2 (human),98.3%
same,residual activity,EPHB2 (human),103%
same,residual activity,CSF1R (human),95.5%
same,residual activity,NEK9 (human),94.7%
same,residual activity,EPHA1 (human),97.7%
same,residual activity,PIM2 (human),115%
same,residual activity,PRKACA (human),107%
same,residual activity,PAK6 (human),106%
same,residual activity,EPHB3 (human),97.1%
same,residual activity,AKT1 (human),100%
same,residual activity,MARK3 (human),87.5%
same,residual activity,FGFR3 (human),97.4%
same,residual activity,MAP2K1 (human),93.7%
same,residual activity,CAMKK2 (human),97%
same,residual activity,STK16 (human),100%
same,residual activity,MAP2K2 (human),106%
same,residual activity,ULK1 (human),85.9%
same,residual activity,RPS6KA1 KD1 KD2 (human),88.1%
same,residual activity,MAP4K2 (human),103%
same,residual activity,BLK (human),99.9%
same,residual activity,MAPKAPK3 (human),92.9%
same,residual activity,PASK (human),77.1%
same,residual activity,CDK5 CDK5R1 p35 (human),98.6%
same,residual activity,RPS6KA3 KD1 KD2 (human),101%
same,residual activity,ACVRL1 (human),102%
same,residual activity,MAP3K10 (human),104%
same,residual activity,DSTYK (human),98.3%
same,residual activity,CDK2 CCNA2 (human),98.7%
same,residual activity,ULK2 (human),95.6%
CCOC(=O)c1c(C)[nH]c(/C=C2\C(=O)Nc3ccccc32)c1C,residual activity,INSRR (human),93.8%
same,residual activity,BRSK2 (human),98.7%
same,residual activity,CLK2 (human),86%
same,residual activity,CDC42BPA (human),85.7%
same,residual activity,BRSK1 (human),92.6%
same,residual activity,FRK (human),95.3%
same,residual activity,GSK3A (human),93.5%
same,residual activity,EPHA6 (human),80%
same,residual activity,PHKG1 (human),73.3%
same,residual activity,DCLK2 (human),94.7%
same,residual activity,LTK (human),66.9%
same,residual activity,MAPK13 (human),98.3%
same,residual activity,LRRK2 (human),28.6%
same,residual activity,MYLK2 (human),74.7%
same,residual activity,EPHB2 (human),95.4%
same,residual activity,CSF1R (human),52.5%
same,residual activity,NEK9 (human),80.8%
same,residual activity,EPHA1 (human),90.8%
same,residual activity,PIM2 (human),97.7%
same,residual activity,PRKACA (human),97.3%
same,residual activity,PAK6 (human),81.4%
same,residual activity,EPHB3 (human),94.4%
same,residual activity,AKT1 (human),96.1%
same,residual activity,MARK3 (human),99.8%
same,residual activity,FGFR3 (human),80.4%
same,residual activity,CAMKK2 (human),90.8%
same,residual activity,STK16 (human),88.3%
same,residual activity,MAP2K2 (human),102%
same,residual activity,ULK1 (human),80.1%
same,residual activity,RPS6KA1 KD1 KD2 (human),77.6%
same,residual activity,MAP4K2 (human),95.5%
same,residual activity,BLK (human),80.2%
same,residual activity,MAPKAPK3 (human),91.7%
same,residual activity,PASK (human),91.4%
same,residual activity,CDK5 CDK5R1 p35 (human),96.7%
same,residual activity,RPS6KA3 KD1 KD2 (human),86.4%
same,residual activity,ACVRL1 (human),94.8%
same,residual activity,MAP3K10 (human),98.5%
same,residual activity,DSTYK (human),90.8%
same,residual activity,CDK2 CCNA2 (human),94.5%
same,residual activity,ULK2 (human),105%
